# Reference: the supplement of paper PMC10307832
# How the values were obtained:
# Experiment in all cases: relative viability (nuclei count vs DMSO), 5 days (fraction); higher = more cells survive
# RAF265 + Foretinib = compound: Cn1c(Nc2ccc(C(F)(F)F)cc2)nc2cc(Oc3ccnc(-c4ncc(C(F)(F)F)[nH]4)c3)ccc21 [RAF265] + COc1cc2c(Oc3ccc(NC(=O)C4(C(=O)Nc5ccc(F)cc5)CC4)cc3F)ccnc2cc1OCCCN1CCOCC1 [Foretinib] (partner 0.25 µM)
# Outline: (§1)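 Relative viability is defined as nuclei in treated wells over nuclei in vehicle wells. Duplicate plates were run and medians reported. Lung cancer cell lines in 1536-well plates were dosed by pin tool one day after seeding, with one drug or with a fixed anchor-drug dose plus five library-drug doses (not always all listed) in √10 steps, and nuclei were counted after 5 days.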
# IPA-3 + OSI-027 = compound: C1=CC=C2C(=C1)C=CC(=C2SSC3=C(C=CC4=CC=CC=C43)O)O [IPA-3] + COc1cccc2cc(-c3nc([C@H]4CC[C@H](C(=O)O)CC4)n4ncnc(N)c34)[nH]c12 [OSI-027] (partner 0.5 µM)
# Outline: as §1
# IPA-3 + Decitabine = compound: C1=CC=C2C(=C1)C=CC(=C2SSC3=C(C=CC4=CC=CC=C43)O)O [IPA-3] + Nc1ncn([C@H]2C[C@H](O)[C@@H](CO)O2)c(=O)n1 [Decitabine] (partner 2 µM)
# Outline: as §1
# Doramapimod + Decitabine = compound: Cc1ccc(-n2nc(C(C)(C)C)cc2NC(=O)Nc2ccc(OCCN3CCOCC3)c3ccccc23)cc1 [Doramapimod] + Nc1ncn([C@H]2C[C@H](O)[C@@H](CO)O2)c(=O)n1 [Decitabine] (partner 2 µM)
# Outline: as §1
Cell Line,relative viability (RAF265 + Foretinib; first compound 0.01 µM),relative viability (RAF265 + Foretinib; first compound 0.03162 µM),relative viability (RAF265 + Foretinib; first compound 0.1 µM),relative viability (RAF265 + Foretinib; first compound 0.3162 µM),relative viability (RAF265 + Foretinib; first compound 1 µM),relative viability (IPA-3 + OSI-027; first compound 0.2 µM),relative viability (IPA-3 + OSI-027; first compound 0.6325 µM),relative viability (IPA-3 + OSI-027; first compound 2 µM),relative viability (IPA-3 + OSI-027; first compound 6.325 µM),relative viability (IPA-3 + OSI-027; first compound 20 µM),relative viability (IPA-3 + Decitabine; first compound 0.2 µM),relative viability (IPA-3 + Decitabine; first compound 0.6325 µM),relative viability (IPA-3 + Decitabine; first compound 2 µM),relative viability (IPA-3 + Decitabine; first compound 6.325 µM),relative viability (IPA-3 + Decitabine; first compound 20 µM),relative viability (Doramapimod + Decitabine; first compound 0.02 µM),relative viability (Doramapimod + Decitabine; first compound 0.06325 µM),relative viability (Doramapimod + Decitabine; first compound 0.2 µM),relative viability (Doramapimod + Decitabine; first compound 0.6325 µM),relative viability (Doramapimod + Decitabine; first compound 2 µM)
NCI-H322M,1.09,1.03,0.781,0.402,0.275,0.597,0.521,0.569,0.597,0.61,0.679,0.654,0.749,0.663,0.718,0.722,0.671,0.736,0.785,0.706
NCI-H358,0.623,0.641,0.448,0.239,0.215,0.895,0.733,0.746,0.69,0.758,0.229,0.199,0.196,0.2,0.108,0.209,0.203,0.197,0.232,0.205
NCI-H441,1.28,1.04,0.966,0.884,0.623,0.819,0.613,0.527,0.54,0.426,0.268,0.257,0.205,0.234,0.21,0.238,0.216,0.268,0.238,0.194
NCI-H460,1.06,0.982,1.06,1.04,1.1,1.2,0.615,0.658,0.671,0.78,0.65,0.41,0.492,0.465,0.324,0.499,0.434,0.487,0.553,0.46
NCI-H520,0.763,0.585,0.749,0.819,0.474,0.303,0.255,0.282,0.284,0.204,0.528,0.523,,0.413,0.453,0.408,0.46,0.536,0.552,0.424
NCI-H596,0.739,0.929,0.866,0.691,0.626,0.761,0.681,0.757,0.668,0.865,1.09,0.984,1.06,0.963,1.08,1,0.97,1.02,0.995,1
NCI-H647,1.14,0.867,0.957,0.979,0.659,1.04,0.576,0.629,0.676,0.301,0.502,0.396,0.397,0.206,0.134,0.44,0.331,0.39,0.418,0.365
NCI-H650,1.1,0.965,0.974,0.814,0.484,0.561,0.534,0.521,0.521,0.566,0.297,0.33,0.292,0.294,0.348,0.326,0.339,0.35,0.323,0.325
NCI-H661,1.05,0.944,0.685,0.636,0.521,0.894,0.726,0.716,0.356,0.673,0.664,0.548,0.528,0.543,0.528,0.563,0.564,0.63,0.631,0.492
NCI-H727,0.879,0.895,0.98,0.744,0.454,0.851,0.703,0.546,0.613,0.634,0.783,0.916,0.71,0.867,0.997,0.855,0.852,0.999,0.736,0.767
NCI-H838,1.06,1.07,1.01,1.07,0.951,0.468,0.437,0.478,0.429,0.453,0.579,0.444,0.456,0.398,0.443,0.455,0.477,0.499,0.476,0.472
NCI-H1355,0.65,0.923,0.823,0.464,0.38,0.417,0.42,0.407,0.398,0.378,0.385,0.36,0.375,0.349,0.34,0.372,0.357,0.347,0.407,0.359
NCI-H1395,0.915,1.02,0.972,0.972,0.697,0.641,0.705,0.547,0.621,0.692,0.688,0.666,0.728,0.687,0.714,0.745,0.722,0.71,0.682,0.64
NCI-H1437,1.22,1.28,1.28,1.33,1.31,1.1,0.942,0.68,0.989,1.17,0.601,0.515,0.543,0.596,0.581,0.541,0.554,0.647,0.624,0.598
NCI-H1650,1.01,1.29,1.35,1.17,0.953,0.763,0.515,0.676,0.724,0.727,0.44,0.396,0.386,0.349,0.374,0.412,0.409,0.515,0.409,0.283
NCI-H1651,0.86,0.808,0.75,0.844,0.584,0.71,0.73,0.695,0.804,0.706,0.699,0.596,0.631,0.644,0.549,0.632,0.678,0.608,0.569,0.608
